Measurements: ChEMBL document CHEMBL4270617, “Design, synthesis, antimicrobial, antiquorum-sensing and antitumor evaluation of new series of pyrazolopyridine derivatives” (Eur J Med Chem, 2018)
Values after ≈ are worked out from the molar mass of the structure shown.

Experiments:
[1] = system: Aspergillus flavus; test: Antifungal activity against Aspergillus flavus 3375 after 48 hrs by two-fold serial dilution method; type: functional; conditions: Aspergillus flavus, 3375, 48 h
[2] = system: Pseudomonas aeruginosa; test: Antibacterial activity against Pseudomonas aeruginosa PAO1 after 24 hrs by two-fold serial dilution method; type: functional; conditions: PAO1, 24 h
[3] = system: Mus musculus; test: Toxicity in Swiss albino mouse implanted with mouse EAC cells assessed as WBC count at 0.5 mg/mouse administered for 9 days (reference value: 20.53 10^3/mm3); type: organism-based; conditions: in vivo, 216 h
[4] = system: Bacillus cereus; test: Antibacterial activity against Bacillus cereus UW 85 after 24 hrs by two-fold serial dilution method; type: functional; conditions: UW 85, 24 h
[5] = system: Candida albicans; test: Antifungal activity against Candida albicans after 48 hrs by two-fold serial dilution method; type: functional
[6] = system: MCF7; test: Antitumor activity against human MCF7 cells assessed as inhibition of cell proliferation after 48 hrs by MTT assay; type: functional, cell-based; conditions: MCF7, 48 h
[7] = Displacement of methyl green from DNA (unknown origin) incubated in dark for 24 hrs
[8] = system: Chromobacterium violaceum; test: Inhibition of quorum sensing system in Chromobacterium violaceum ATCC 12472 assessed as diameter of violacein pigment inhibition at 5 mg/ml after 48 hrs
[9] = system: HeLa; test: Antitumor activity against human HeLa cells assessed as inhibition of cell proliferation after 48 hrs by MTT assay; type: functional, cell-based; conditions: read-out: IC50
[10] = system: HepG2; test: Antitumor activity against human HepG2 cells assessed as inhibition of cell proliferation after 48 hrs by MTT assay; type: functional, cell-based; conditions: HepG2, 48 h
[11] = system: Mus musculus; test: Toxicity in Swiss albino mouse implanted with mouse EAC cells assessed as hemoglobin level at 0.5 mg/mouse administered for 9 days (reference value: 7.05 g/dl); type: organism-based; conditions: in vivo, 216 h
[12] = system: Staphylococcus aureus; test: Antibacterial activity against Staphylococcus aureus ATCC 29213 after 24 hrs by two-fold serial dilution method; type: functional; conditions: ATCC 29213, 24 h
[13] = system: Ehrlich; test: Antitumor activity against mouse EAC cells allografted in Swiss mouse assessed as viable tumor cell count at 0.5 mg/mouse administered for 9 days (reference value: 77.41 10^6/ml); type: functional
[14] = system: Mus musculus; test: Toxicity in Swiss albino mouse implanted with mouse EAC cells assessed as RBC count at 0.5 mg/mouse administered for 9 days (reference value: 3.59 10^6/mm3); type: organism-based; conditions: in vivo, 216 h
[15] = system: Ehrlich; test: Antitumor activity against mouse EAC cells allografted in Swiss mouse assessed as increase in life span at 0.5 mg/mouse administered for 9 days relative to control; type: functional
[16] = system: Aspergillus fumigatus; test: Antifungal activity against Aspergillus fumigatus 293 after 48 hrs by two-fold serial dilution method; type: functional; conditions: Aspergillus fumigatus, 293, 48 h
[17] = system: Escherichia coli; test: Antibacterial activity against Escherichia coli ATCC 12435 after 24 hrs by two-fold serial dilution method; type: functional; conditions: ATCC 12435, 24 h
[18] = system: WI-38; test: Cytotoxicity against human W138 cells after 48 hrs by MTT assay; type: cell-based; conditions: WI-38, 48 h
[19] = system: Ehrlich; test: Antitumor activity against mouse EAC cells allografted in Swiss mouse assessed as tumor volume at 0.5 mg/mouse administered for 9 days (reference value: 10.15 mL); type: functional
[20] = system: WISH; test: Cytotoxicity against human WISH cells after 48 hrs by MTT assay; type: cell-based
[21] = system: Ehrlich; test: Antitumor activity against mouse EAC cells allografted in Swiss mouse assessed as mean survival time at 0.5 mg/mouse administered for 9 days (reference value: 18 day); type: functional

Row | SMILES | MIC [1] | MIC [2] | Activity [3] | MIC [4] | MIC [5] | IC50 [6] | IC50 [7] | diameter of the inhibition zone (DIZ) [8] | IC50 [9] | IC50 [10] | Activity [11] | MIC [12] | Activity [13] | Activity [14] | Activity [15] | MIC [16] | MIC [17] | IC50 [18] | Activity [19] | IC50 [20] | further results
1 | CCOC(=O)C1=C(N/C=N/c2cccnc2Cl)Nc2[nH]nc(C)c2C1c1ccc(N(C)C)cc1 (centres undefined) | 521 µM | 65.1 µM | 8.14 ×10³ /mm3 | 65.1 µM | 130 µM | 4.18 µM | 30.2 µM | < 2 mm | 4.63 µM | 4.89 µM | 13.85 g/dL | 65.1 µM | 21.8 ×10⁶ /ml | 5.78 ×10⁶ /mm3 | 227.8% | 521 µM | 65.1 µM (≈ 31.2 µg/mL) | 74.5 µM | 1.25 mL | 60.1 µM | MSD [21]: 59 days
2 | CCOC(=O)C1=C(NN=C(C(C)=O)C(C)=O)Nc2[nH]nc(C)c2C1c1ccc(N(C)C)cc1 (centres undefined) | 1100 µM | 552 µM | 8.84 ×10³ /mm3 | 552 µM | 2210 µM | 9.74 µM | 35.5 µM | < 2 mm | 17 µM | 8.48 µM | 13.45 g/dL | 2210 µM | 27.53 ×10⁶ /ml | 5.65 ×10⁶ /mm3 | 172.2% | 4420 µM | 552 µM (≈ 250 µg/mL) | 61.4 µM | 1.9 mL | 58.7 µM | MSD [21]: 49 days
3 | CCOC(=O)C1=C(N)Nc2[nH]nc(C)c2C1c1ccc(N(C)C)cc1 (centres undefined) | > 200 µg/mL | > 200 µg/mL | 6.38 ×10³ /mm3 | > 200 µg/mL | > 200 µg/mL | 5.06 µM | 32.4 µM | < 2 mm | 6.22 µM | 4.24 µM | 14.15 g/dL | > 200 µg/mL | 18.64 ×10⁶ /ml | 6.26 ×10⁶ /mm3 | 261.1% | > 200 µg/mL | 683 µM (≈ 233 µg/mL) | 84 µM | 1.05 mL | 94.6 µM | MSD [21]: 65 days
4 | CCOC(=O)C1=C(N/C=N/c2ncc(-c3ccccc3)s2)Nc2[nH]nc(C)c2C1c1ccc(N(C)C)cc1 (centres undefined) | 3790 µM | 474 µM | 11.83 ×10³ /mm3 | 59.2 µM | 1900 µM | 10.1 µM | 74.2 µM | 3 mm | 15.4 µM | 9.79 µM | 11.9 g/dL | 59.2 µM | 48.56 ×10⁶ /ml | 4.85 ×10⁶ /mm3 | 88.9% | 3790 µM | 474 µM (≈ 250 µg/mL) | 33.5 µM | 3.8 mL | 29.5 µM | MSD [21]: 34 days
